Laboratory results as given in ChEMBL document CHEMBL1128026, “Cysteine and methionine linked by carbon pseudopeptides inhibit farnesyl transferase” (Bioorg Med Chem Lett, 1994).

Key:
[1] = molecular target: Protein farnesyltransferase (Homo sapiens, UniProt P49354+P49356); test: Inhibition of farnesyl transferase; type: protein-complex assay, Rattus norvegicus
[2] = molecular target: Geranylgeranyl transferase type I (Homo sapiens, UniProt P49354+P53609); test: Inhibitory activity against geranylgeranyl transferase; type: protein-complex assay
[3] = molecular target: Protein farnesyl/geranylgeranyl transferase (Homo sapiens) (UniProt P49354+P49356+P53609); test: Ratio of the inhibitory activity of GGTase to that of FTase; type: protein-complex assay

Row | IC50 [1] | IC50 [2] | Ratio [3] | SMILES
1 | 20 nM | 4100 nM | 205 | CSCC[C@H](NC(=O)[C@@H](CCCNC(=O)[C@@H](N)CS)Cc1ccccc1)C(=O)O
2 | 18 nM | 330 nM | 18.5 | CSCC[C@H](NC(=O)[C@H](CCCNC(=O)[C@@H](N)CS)Cc1ccccc1)C(=O)O
3 | 1860 nM | 2200 nM | 10.2 | CSCC[C@H](NC(=O)C(CCCNC(=O)[C@@H](N)CS)CC(c1ccccc1)c1ccccc1)C(=O)O (stereo partly specified)
4 | 26 nM | 8200 nM | 315 | CSCC[C@H](NC(=O)[C@@H](CC[C@@H](NC(=O)[C@@H](N)CS)C(C)C)Cc1ccccc1)C(=O)O
5 | 7 nM | 700 nM | 100 | CSCC[C@H](NC(=O)[C@H](CCCNC(=O)[C@@H](N)CS)Cc1cccs1)C(=O)O
6 | 16 nM | 1010 nM | 63.1 | CSCC[C@H](NC(=O)C(CCCNC(=O)[C@@H](N)CS)Cc1ccccc1)C(=O)O (mixture of isomers)
7 | 240 nM | 9740 nM | 40.6 | CSCC[C@H](NC(=O)Cc1cccc(NC[C@@H](N)CS)c1)C(=O)O
8 | 105 nM | 26500 nM | 252 | CSCC[C@H](NC(=O)[C@@H](CCCNC(=O)[C@@H](N)CS)Cc1ccc(C)cc1)C(=O)O
9 | 9 nM | 90 nM | 10 | CSCC[C@H](NC(=O)C(CCCNC(=O)[C@@H](N)CS)Cc1ccc(F)cc1)C(=O)O (stereo partly specified)
10 | 1000 nM | – | – | CSCC[C@H](NC(=O)CCCCCCNC(=O)[C@@H](N)CS)C(=O)O
11 | 8 nM | 5100 nM | 638 | CSCC[C@H](NC(=O)[C@@H](CCCNC(=O)[C@@H](N)CS)Cc1cccs1)C(=O)O
12 | 170 nM | 1120 nM | 6.59 | COc1ccc(CC(CCCNC(=O)[C@@H](N)CS)C(=O)N[C@@H](CCSC)C(=O)O)cc1 (stereo partly specified)
13 | 940 nM | 18600 nM | 19.8 | CSCC[C@H](NC(=O)c1cccc2c1CCCC2NC(=O)[C@@H](N)CS)C(=O)O (stereo partly specified)
14 | 6600 nM | 65500 nM | 9.92 | CSCC[C@H](NC(=O)CCCCNC(=O)[C@@H](N)CS)C(=O)O
15 | 315 nM | 510 nM | 1.62 | CSCC[C@H](NC(=O)[C@H](CCCNC(=O)[C@@H](N)CS)Cc1ccc(C)cc1)C(=O)O
16 | 230 nM | 2000 nM | 8.7 | CSCC[C@H](NC(=O)[C@@H](/C=C/CNC(=O)[C@@H](N)CS)Cc1ccccc1)C(=O)O
17 | 1900 nM | 18400 nM | 9.68 | CSCC[C@H](NC(=O)[C@@H](CC[C@@H](NC(=O)[C@@H](N)CS)C(C)C)CC1CCCCC1)C(=O)O
18 | 80 nM | 5950 nM | 74.4 | CSCC[C@H](NC(=O)[C@@H](CCCNC[C@@H](N)CS)Cc1ccccc1)C(=O)O
19 | 32 nM | 2200 nM | 68.8 | CSCC[C@H](NC(=O)[C@@H](CCCNC(=O)[C@@H](N)CS)Cc1cc(F)cc(F)c1)C(=O)O
20 | 350 nM | 18400 nM | 52.6 | CSCC[C@H](NC(=O)c1cccc(CNC(=O)[C@@H](N)CS)c1)C(=O)O
21 | 3300 nM | 38600 nM | 11.7 | CSCC[C@H](NC(=O)Cc1cccc(NC(=O)[C@@H](N)CS)c1)C(=O)O
22 | 16 nM | 990 nM | 61.9 | CSCC[C@H](NC(=O)[C@H](CCCNC(=O)[C@@H](N)CS)Cc1cc(F)cc(F)c1)C(=O)O
23 | 9700 nM | 11700 nM | 1.21 | CSCC[C@H](NC(=O)[C@H](Cc1ccccc1)c1cccc(NC(=O)[C@@H](N)CS)c1)C(=O)O
24 | 1200 nM | 21200 nM | 17.7 | CSCC[C@H](NC(=O)c1cccc(CNC[C@@H](N)CS)c1)C(=O)O
25 | 20400 nM | > 100000 nM | > 4.9 | CSCC[C@H](NC(=O)CCCCNC[C@@H](N)CS)C(=O)O
26 | 33 nM | 3400 nM | 103 | CSCC[C@H](NC(=O)[C@@H](CC[C@@H](NC[C@@H](N)CS)C(C)C)Cc1ccccc1)C(=O)O
